According to patent publication US12251373B2, “Compounds and methods of treating retinal degeneration” (CASE WESTERN RESERVE UNIVERSITY, priority 2017, dated 2025):

Columns and labels:
[1] = molecular target: T1, human rod opsin C110Y (Homo sapiens, UniProt P08100, C110Y); assay: Cell surface immunostain for rhodopsin mutants in NIH3T3 cells; format: cell-based; conditions: YC-001 treatment
T1 construct: expressed in transfected cells; host or cells: NIH3T3, transfected with pcDNA3.1-hOpsin mutant
Procedure: (§1) Human rhodopsin cDNA was placed into the pcDNA3.1(+) vector (pcDNA3.1-hOpsin). Site directed mutagenesis was performed following the QuickChange II site-directed mutagenesis kit (Agilent Technologies Inc.). Primers for the following mutations were as follows: […]
(§2) DNA vectors with rhodopsin mutations were confirmed by Sanger sequencing. After NIH3T3 cells were transfected with pcDNA3.1-hOpsin or its mutants for 24 h, these cells were resuspended and seeded into a 96-well plate with an optic bottom (Corning). […] Each condition was repeated in three wells. The treated plate was covered in tin foil and incubated at 37° C. with 5% CO2 for 24 h. Cells were then immunostained with Alexa […] 488-conjugated B6-30 anti-rhodopsin antibody. Cells were not exposed to detergents so that cell membranes were kept intact and only rhodopsin on the cell surface was immunostained. Alexa 488 fluorescence was imaged by the ImageExpress (Molecular Devices) high-content imager with a 20× objective. Medicinal Chemistry of YC-001

[2] = molecular target: T2, human rod opsin P267L (Homo sapiens, UniProt P08100, P267L); assay: as above; format: cell-based; conditions: YC-001 treatment
T2 construct: expressed in transfected cells; host or cells: NIH3T3, transfected with pcDNA3.1-hOpsin mutant
Procedure: as §1, §2

[3] = molecular target: T3, human rod opsin G106R (Homo sapiens, UniProt P08100, G106R); assay: as above; format: cell-based; conditions: YC-001 treatment
T3 construct: expressed in transfected cells; host or cells: NIH3T3, transfected with pcDNA3.1-hOpsin mutant
Procedure: as §1, §2

[4] = molecular target: T4, human rod opsin D190N (Homo sapiens, UniProt P08100, D190N); assay: as above; format: cell-based; conditions: YC-001 treatment
T4 construct: expressed in transfected cells; host or cells: NIH3T3, transfected with pcDNA3.1-hOpsin mutant
Procedure: as §1, §2

[5] = test system: C57BL/6 mice; assay: Scotopic ERG recovery after bleaching; format: in vivo, mouse; conditions: 200 mg kg−1 i.p., compared to DMSO
Procedure: C57BL/6 mice at 2 months of age were placed in the dark overnight. Mice then were divided into a YC-001-treated group, a DMSO-treated group, and an unbleached group. Each group contained 3 mice (2 females and 1 male). Mice were given a single dose of YC-001 at 200 mg kg^−1 by i.p. injection. The DMSO group was treated with an equivalent volume of DMSO compared to the YC-001-treated group. One h after YC-001 or DMSO administration, mouse eyes were treated with 1% tropicamide eye drops for pupil dilation, exposed to 2,000 lux of illumination for 5 min and returned to the dark. Mice were anesthetized after a bleach for scotopic ERG recordings. Briefly, every 5 min a single-flash scotopic ERG at 1.6 cd·s·m^−2 was recorded until 1 h after a bleach. A-wave amplitudes of each ERG recording were measured, averaged from three animals, and plotted as a function of time and fitted to a linear function using Origin software version 8.1.

Compound: O=C1OCC(c2ccc(Cl)s2)=C1c1cccs1 [YC-001]
- cell surface staining of mutant opsin [1]: not effective
- cell surface staining of mutant opsin [2]: increased significantly
- cell surface staining of mutant opsin [3]: increased significantly
- cell surface staining of mutant opsin [4]: increased significantly
- scotopic ERG a-wave recovery after bleach [5]: did not inhibit rhodopsin regeneration
